Legend:
[1] = tested on: 3T3 fibroblasts; assay: Cell adhesion assay (cell area coverage on surface-immobilized substrates); type: cell-based; conditions: substance surface-immobilized on tissue culture plastic; 3T3 cells, 24 hrs; relative to untreated tissue culture plastic
From the text: For this study, we immobilized AAGPAHA and the peptide GRGDSP on dextran-coated tissue culture plastic dishes in a series of steps shown in FIGS. 2-4. Multi-well cell culture dishes were first surface-aminated by adsorbing poly-lysine (FIG. 2). Dextran was then immobilized on these surfaces (FIG. 3) using reported methods (Massia, Biomaterials 21:2753-61, 2000). AAGPAHA and GRGDSP were then surface-immobilized on dextran-coated tissue culture plastic (FIG. 4) using reported methods (Massia, J Biomed Mater Res 56:390-99, 2001). Dextran substrates were activated by oxidation of the glucose subunits (Glc) with sodium metaperiodate to convert Glc subunits to […]. […]
Cell area coverage assays were performed to assess the extent of 3T3 cell adhesion and spreading on all substrates. […] Following incubation, samples were fixed (3.8% formaldehyde in phosphate buffered saline (PBS) for 5 min. and stained with 0.1% aqueous toluidine blue (5 min). Stained cells were then examined using phase contrast or stereomicroscopy (Leica) at 100× magnification. Three random 100× fields were selected for each substrate for analysis. The extent of cell adhesion was determined for each captured digital image by calculating a percentage of cell area coverage using digital image analysis software. Final data were presented as a percentage of control adhesion. […]

[2] = tested on: 3T3 cell adhesion and spreading (integrin-mediated); assay: Cell adhesion inhibition assay (soluble competitor against grafted substrate); type: cell-based; conditions: soluble GRGDSP 1 mg/mL, 3T3 cells, 24 hrs
Protocol: The cell line utilized in these studies were 3T3 fibroblasts (ATCC # CRL-6476, Manassas, Va.). 3T3 cells were maintained in Dulbecco's modified Eagle medium (DMEM) with 10% fetal bovine serum (FBS) at 37° C. in saturated humidity. All cell culture media and reagents were obtained from Life Technologies, Inc. (Rockville, Md.).
Cell area coverage assays were performed to assess the extent of 3T3 cell adhesion and spreading on all substrates. 3T3 cells were seeded on 24-well culture dishes (15,000 cells/well) and incubated for 24 hrs. Following incubation, samples were fixed (3.8% formaldehyde in phosphate buffered saline (PBS) for 5 min. and stained with 0.1% aqueous toluidine blue (5 min). Stained cells were then examined using phase contrast or stereomicroscopy (Leica) at 100× magnification. Three random 100× fields were selected for each substrate for analysis. The extent of cell adhesion was determined for each captured digital image by calculating a percentage of cell area coverage using digital image analysis software. Final data were presented as a percentage of control adhesion.
The percentage of control adhesion was calculated by multiplying the ratio of % area coverage on dextran-coated, peptide-grafted, or peptidomimetic-grafted substrates to % cell area coverage on untreated tissue culture plastic by 100. […]

[3] = tested on: trypsin; assay: Enzymatic stability in trypsin solution, MALDI-TOF mass spectrometry; type: in vitro ADME; conditions: for decrease in mass peak size after treatment with trypsin / mass peak intensity after trypsin exposure / degradation after prolonged trypsin exposure / mass peak intensity after prolonged trypsin exposure: 0.05 mM trypsin; for decrease in mass peak size after treatment with trypsin / mass peak intensity after trypsin exposure / mass peak intensity before trypsin exposure: 1 hr, 37° C.; for mass peak intensity after trypsin exposure / mass peak intensity before trypsin exposure: HEPES pH 8, 0.4 mM; for degradation after prolonged trypsin exposure / mass peak intensity after prolonged trypsin exposure / mass peak intensity before prolonged trypsin exposure: 16 hrs, room temperature; for mass peak intensity before trypsin exposure / mass peak intensity before prolonged trypsin exposure: control without trypsin
Protocol: GRGDSP and AAGPAHA were mixed with trypsin solution in HEPES buffer (10 mM, pH=8) to a final solution of 0.4 mM peptide and 0.05 mM (0.12%) trypsin and incubated at 37° C. for 1 hr. In a control experiment, both peptides were dissolved in the same buffer without trypsin at the same final concentrations and incubated at 37° C. for 1 hr. Similarly, in another set of experiments, the same samples were incubated at room temperature overnight. At the end of the incubation period, trypsin activity was quenched by adding inhibitor; and the samples were analyzed by MALDI-TOF mass spectrometry to assess the extent of degradation.

Molecule	percentage of control adhesion (cell area coverage) [1] [% control]	percentage of control adhesion on surface-immobilized AAGPAHA in presence of soluble compound [2]	percentage of control adhesion on surface-immobilized AAGPAHA in presence of soluble compound ([2]; listed as RGD peptide)	decrease in mass peak size after treatment with trypsin [3]	mass peak intensity after trypsin exposure [3]	degradation after prolonged trypsin exposure [3]	mass peak intensity after prolonged trypsin exposure [3]	mass peak intensity before trypsin exposure [3]	mass peak intensity before prolonged trypsin exposure [3]
GRGDSP	124.3±4.1	5.7%±6.9%	decreased cell coverage	73%	4.0×10^3	about 98%	3.0×10^2	1.5×10^4	1.5×10^4
N=C(N)NCCCC(N)C(=O)NCCCCC(N)C(=O)O (stereo not shown) [AAGPAHA, 2-amino-6-[(2-amino-5{guanidino}pentanoyl)amino]hexanoic acid]	105.9±12.8	–	–	no significant change	the same	highly resistant to trypsin-mediated degradation	the same	1.2×10^4	1.2×10^4

Reference: US20060246104A1, “Stable rgd peptidomimetic composition” (priority 2003, published 2006)
